Where a SMILES comes first, the peptide text is derived from it. The star is where a group is joined. Cbz = O=C(OCc1ccccc1)*
Biological target: T1, MTG (recombinant microbial transglutaminase, TGase) (Streptomyces sp., UniProt A0A6H0XHW2)
T1 construct: pro-mature gene (1,149 bp) without native signal peptide, codon-optimized, behind B. subtilis YncM signal peptide; secreted by Bacillus subtilis SCK6; purified mature enzyme, 38 kDa; no tag told
T1 sequence (A0A6H0XHW2 80-410): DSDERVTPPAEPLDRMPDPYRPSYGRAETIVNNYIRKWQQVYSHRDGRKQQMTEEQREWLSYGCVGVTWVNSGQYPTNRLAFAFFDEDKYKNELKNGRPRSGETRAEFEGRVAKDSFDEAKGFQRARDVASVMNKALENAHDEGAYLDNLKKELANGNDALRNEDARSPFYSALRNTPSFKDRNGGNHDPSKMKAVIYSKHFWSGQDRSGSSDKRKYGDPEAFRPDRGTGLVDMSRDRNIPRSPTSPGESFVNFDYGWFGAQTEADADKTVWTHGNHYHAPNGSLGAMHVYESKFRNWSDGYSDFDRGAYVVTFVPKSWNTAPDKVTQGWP
Assay: hydroxamate assay ([…] nm), Lineweaver-Burk plot
Assay type: biochemical
Settings: CBZ-Gln-Gly 5 to 30 mmol/l; pH 6.0; 37 °C; co-substrate hydroxylamine 100 mM, glutathione 10 mM; unit as printed (presumably μmol/ml)

`NC(=O)CC[C@H](NC(=O)OCc1ccccc1)C(=O)NCC(=O)O` [CBZ-Gln-Gly] (Cbz-Gln-Gly-OH) was tested, and the Km was 16.93 μM/ml.
